Reference: US20200009105A1, “PROSTACYCLIN, PROSTACYCLIN ANALOGS, AND METHODS OF TREATING OR PREVENTING REJECTION OF SOLID ORGAN TRANSPLANTS” (VANDERBILT UNIVERSITY, priority 2017, published 2020)
Where “and” joins values, the source holds several entries; their conditions need not be identical. Identical values can stand only once.

Key:
[1] = cited from earlier work
[2] = oral administration; cited from earlier work
[3] = target: IP (Homo sapiens, UniProt P43119); settings: compared with treprostinil; cited from earlier work
Sequence of IP (P43119 whole entry): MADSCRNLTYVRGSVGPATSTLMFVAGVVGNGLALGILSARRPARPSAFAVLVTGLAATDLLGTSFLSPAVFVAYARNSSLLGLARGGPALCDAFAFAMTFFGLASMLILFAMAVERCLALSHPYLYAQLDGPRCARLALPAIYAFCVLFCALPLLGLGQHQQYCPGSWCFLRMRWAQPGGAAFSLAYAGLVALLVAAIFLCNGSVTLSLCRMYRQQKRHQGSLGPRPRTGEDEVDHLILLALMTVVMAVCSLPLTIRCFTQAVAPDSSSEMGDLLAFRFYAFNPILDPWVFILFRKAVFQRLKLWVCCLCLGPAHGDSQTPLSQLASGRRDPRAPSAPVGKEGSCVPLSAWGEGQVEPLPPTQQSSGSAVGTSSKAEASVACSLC

[4] = tested on: Th2 cells; settings: in vitro, Th2 cells differentiated under IL-4 and anti-IFN-γ; cited from earlier work
[5] = tested on: DCs; settings: cited from earlier work
[6] = tested on: lung DCs; settings: mouse model; cited from earlier work
[7] = in vivo; cited from earlier work
[8] = target: PGE2 receptor EP2 (Homo sapiens, UniProt P43116); settings: cited from earlier work
Sequence of PGE2 receptor EP2 (P43116 whole entry): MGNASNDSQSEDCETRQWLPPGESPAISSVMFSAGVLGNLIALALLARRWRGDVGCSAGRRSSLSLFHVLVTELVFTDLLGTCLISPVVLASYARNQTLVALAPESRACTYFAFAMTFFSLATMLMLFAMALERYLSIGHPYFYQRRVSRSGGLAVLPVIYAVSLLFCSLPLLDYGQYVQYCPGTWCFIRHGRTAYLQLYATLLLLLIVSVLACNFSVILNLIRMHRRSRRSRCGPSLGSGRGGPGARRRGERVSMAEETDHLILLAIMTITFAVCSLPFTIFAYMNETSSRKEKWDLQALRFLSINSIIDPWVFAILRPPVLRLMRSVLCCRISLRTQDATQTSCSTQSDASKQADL

[9] = rat, chronic administration; cited from earlier work
[10] = tested on: naïve CD4^+ T cells of WT and IP KO mice; assay: IL-33-induced type 2 cytokine production by naive CD4+ T cells (ELISA of culture supernatant); type: cell-based, mouse
Protocol: (§1) CD4^+ T cells were purified from the splenic cells of WT, or IP KO mice by a mouse naive CD4^+ T cell isolation kit II (Miltenyi Biotec, Auburn, Calif.). The purified CD4^+CD62L^+ T cell population contains 97.5% CD3^+CD4^+ cells as determined by flow cytometry. The purified CD4 T cells were resuspended at 1×10^6 cells/ml in RPMI 1640 medium (Mediatech, Herndon, Va.) supplemented with 10% FBS (HyClone, Logan, Utah), 4 mM of L-glutamine, 1 mM of sodium pyruvate, […] of 2-ME, 10 mM of HEPES, 100 U/ml penicillin, and 100 μg/ml streptomycin. The cells were stimulated with plate-bound anti-CD3 (10 μg/ml) and anti-CD28 (2 μg/ml; BD Biosciences, San Diego, Calif.) in 96-well flat-bottom plates and treated with IL-33 (20 ng/ml) plus cicaprost (a generous gift provided by Dr. Manuela Huebner, Bayer HealthCare, Berlin, Germany) at various concentrations or vehicle (water) control. The cells were cultured for 3 days. For T cell proliferation experiments, naive CD4^+ T cells were stained with 1 μM CFSE before cell culture and cicaprost treatment.
(§2) Cell culture supernatant was collected at day 2 for IL-2 measurement because IL-2 production by activated CD4^+ T cells peak at day 2 (unpublished data). At day 3, the culture supernatant was harvested for IL-4, IL-5 and IL-13 measurement. At day 2, the cells were harvested and the cell lysate was prepared for p-STAT5 measurement.
(§3) IL-2, IL-4, IL-5, and IL-13 in the culture supernatant were measured by DuoSet ELISA kits from R&D Systems according to the manufacturer's instructions. Phosphorylated STAT5 (p-STAT5) was measured by phosphor-STAT5A/B (Tyr694/Tyr699) InstantOne™ ELISA kit (Affymetrixes). Measurements below the limit of detection were assigned a value of half the lower limit of detection for purposes of statistical analyses.
To determine the effect of PGI2 signaling on IL-33-induced Th2 differentiation, naïve CD4^+ T cells of WT and IP KO mice, both on BALB/c background, were activated with anti-CD3 and anti-CD28 either with or without IL-33 and treated with cicaprost or vehicle for 3 days.

[11] = tested on: CD4^+ T cells; assay: Intracellular cytokine staining for flow cytometry of IL-33-stimulated T cells; type: cell-based, mouse; settings: in the presence of IL-33, 3 days, vs vehicle
Protocol: (§4) CD4^+ T cells were purified from the splenic cells of WT, or IP KO mice by a mouse naive CD4^+ T cell isolation kit II (Miltenyi Biotec, Auburn, Calif.). The purified CD4^+CD62L^+ T cell population contains 97.5% CD3^+CD4^+ cells as determined by flow cytometry. The purified CD4 T cells were resuspended at 1×10^6 cells/ml in RPMI 1640 medium (Mediatech, Herndon, Va.) supplemented with 10% FBS (HyClone, Logan, Utah), 4 mM of L-glutamine, 1 mM of sodium pyruvate, […] of 2-ME, 10 mM of HEPES, 100 U/ml penicillin, and 100 μg/ml streptomycin. […]
(§5) At day 3 of cell culture, the cells were harvested for flow cytometric staining with fluorochrome-labeled antibodies against CD4^+ (Biolegend, San Diego, Calif.), Gata3 (Affymetrix, Santa Clara, Calif.), CD25 (BD Biosciences, San Jose, Calif.), or TSLPR (R&D Systems, Minneapolis, Minn.). An LSR II flow cytometer (BD Biosciences) was used for flow cytometry and the data were analyzed with FlowJo software (FlowJo, LLC, Ashland Oreg.). For cell proliferation assay, CFSE intensity of the cultured cells was determined at day 3 by flow cytometry. Cell division index was calculated with FlowJo software. […]

[12] = tested on: Gata3; assay: Gata3 expression in CD4+ T cells by flow cytometry; type: cell-based, mouse; settings: WT mice, 1000 nM, IL-33, 3 days
Protocol: as §1, §5
The differentiation of naïve CD4^+ T cells into Th2 cells under IL-4 culture conditions requires the expression of the transcription factor Gata3 (18). To investigate whether Gata3 plays a role in the inhibitory effect of cicaprost on IL-33-induced type 2 cytokine production, the expression of Gata3 in CD4^+ T cells activated with IL-33 and treated with cicaprost at various concentrations or vehicle for 3 days was determined. […]

[13] = tested on: CD4^+ T cells; assay: IL-2 production by CD4+ T cells (ELISA, day 2 supernatant); type: cell-based, mouse; settings: WT CD4+ T cells, IL-33, day 2
Protocol: as §4
IL-2, IL-4, IL-5, and IL-13 in the culture supernatant were measured by DuoSet ELISA kits from R&D Systems according to the manufacturer's instructions. Phosphorylated STAT5 (p-STAT5) was measured by phosphor-STAT5A/B (Tyr694/Tyr699) InstantOne™ ELISA kit (Affymetrixes). […]
In vitro activation of mouse naïve CD4^+ T cells results in the expression of IL-2, a growth factor critical for cell survival and proliferation (19). To investigate whether cicaprost inhibits IL-33-induced type 2 cytokine production by suppressing CD4^+ T cell IL-2 production and cell activation, IL-2 levels were measured in the culture supernatant.

[14] = tested on: NFAT; assay: NFAT function assay (NFAT-luciferase reporter lentiviral vector); type: cell-based, mouse; settings: WT cells, after 3 days of cell culture
Protocol: To determine NFAT activation, a Cignal Lenti NFAT reporter (luc) kit (Qiagen, Hilden, Germany), was used to transduce naïve CD4^+ T cells. CD4^+ T cells (10^5) of WT and IP KO mice were transduced with 2×10^5 transduction units of lentiviral vector (MOI=2) and 30 μg transduction reagent in 60 μl of transduction medium without antibiotics for 24 h in 96 well plates coated with anti-CD3 and anti-CD28. The cells were then pooled, washed, seeded and treated with IL-33 plus either cicaprost or vehicle. After culture for 2 more days in the same plates, the cells were harvested and the cell lysate was used for luciferase assay with Luciferase Assay System with Reporter Lysis Buffer (Promega, Madison, Wis.). The luciferase activity indicates the levels of NFAT activation. To determine whether the suppressive effect of cicaprost on IL-2 production is associated with the inhibition of NFAT, a transcription factor that binds to the IL-2 gene promoter to activate IL-2 gene expression, an NFAT function assay was performed with an NFAT-luciferase reporter lentiviral vector system.

[15] = tested on: CD4^+ T cells; assay: CD4+ T cell proliferation (CFSE dilution) and live cell counting; type: cell-based, mouse; settings: WT CD4+ T cells, 1000 nM, IL-33, day 3
Protocol: as §4, §5
To further analyze the effect of cicaprost on cell proliferation, naïve CD4^+ T cells were CFSE-labeled, activated with anti-CD3 and anti-CD28, and treated with IL-33 plus either vehicle or cicaprost. Cell proliferation was determined by CFSE dilution.

[16] = tested on: CD25; assay: CD25 surface expression on CD4+ T cells by flow cytometry; type: cell-based, mouse; settings: 3 days, vs vehicle control
Protocol: as §1
(§6) At day 3 of cell culture, the cells were harvested for flow cytometric staining with fluorochrome-labeled antibodies against CD4^+ (Biolegend, San Diego, Calif.), Gata3 (Affymetrix, Santa Clara, Calif.), CD25 (BD Biosciences, San Jose, Calif.), or TSLPR (R&D Systems, Minneapolis, Minn.). An LSR II flow cytometer (BD Biosciences) was used for flow cytometry and the data were analyzed with FlowJo software (FlowJo, LLC, Ashland Oreg.). For cell proliferation assay, CFSE intensity of the cultured cells was determined at day 3 by flow cytometry. Cell division index was calculated with FlowJo software. At day 3, the cells were stained with the cell viability dye 4,6-diamidino-2-phenylindole (DAPI), and 123count™ eBeads (Affymetrix) were added to the cell solution for live cell counting by flow cytometry.
(§7) To determine whether cicaprost attenuates the IL-2 signaling pathway, CD4^+ T cells activated and treated with either cicaprost or vehicle for 3 days were stained with fluorochrome-labeled anti-CD25 antibody and analyzed by flow cytometry.

[17] = tested on: TSLPR; assay: TSLPR expression on T cells by flow cytometry; type: cell-based, mouse; settings: WT or IP KO T cell culture in the presence of IL-33 (data not shown)
Protocol: as §6, §7

[18] = tested on: STAT5; assay: Phosphorylated STAT5 in CD4+ T cell lysate (ELISA); type: cell-based, mouse; settings: WT cells, 2 days, IL-33
Protocol: as §2, §3
Binding of IL-2 to IL-2 receptor leads to the activation of JAK1 and JAK3 and the activation of the downstream transcription factors STAT5 (21). To test whether cicaprost downregulates IL-2 receptor signaling, the levels of phosphorylated STAT5 were measured in CD4^+ T cells harvested 2 days after the cell activation and treatment with IL-33 plus either vehicle or cicaprost.

[19] = tested on: type 2 innate lymphoid cells (ILC2); settings: cited from earlier work
[20] = tested on: ILC2; settings: WT mice; cited from earlier work
[21] = IP KO CD4+ T cells, anti-CD3/anti-CD28 + IL-33, 3 days
[22] = WT CD4+ T cells, anti-CD3/anti-CD28 + IL-33, 3 days
[23] = in the presence of either 10 ng/ml or 50 ng/ml exogenous IL-2, IL-33, 3 days

SMILES: CC#CCC(C)[C@H](O)/C=C/[C@@H]1[C@H]2C/C(=C/CCCC(=O)O)C[C@H]2C[C@H]1O (stereo partly drawn) [Iloprost]
- half-life [1]: 13 min
- iloprost reaching the systemic circulation [2]: less than 20%
- specificity for IP [3]: greater specificity for IP than treprostinil
- production of effector cytokine IL-4 [4]: inhibited
- production of effector cytokine IL-5 [4]: inhibited
- LPS-induced expression of CD40 by DCs [5]: suppressed
- LPS-induced expression of CD86 by DCs [5]: suppressed
- LPS-induced expression of MHC class II molecules by DCs [5]: suppressed
- ability of DCs to stimulate antigen-specific CD4 T cell proliferation [5]: inhibited
- ability of DCs to stimulate production of the Th2 cytokine IL-5 [5]: inhibited
- ability of DCs to stimulate production of the Th2 cytokine IL-13 [5]: inhibited
- maturation and migration of lung DCs to the mediastinal LNs [6]: inhibited
- safety of administration to pulmonary hypertension patients [7]: safe

SMILES: CCCCC[C@H](O)/C=C/[C@@H]1[C@H]2C/C(=C/CCCC(=O)O)O[C@H]2C[C@H]1O [PGI2, prostacyclin]
- half-life (biologic half-life) [1]: 46 seconds and 60-90 seconds

SMILES: CCCCC[C@H](O)CC[C@@H]1[C@H]2Cc3cccc(OCC(=O)O)c3C[C@H]2C[C@H]1O [Treprostinil]
- half-life compared with epoprostenol [1]: longer
- activation of PGE2 receptor EP2 [8]: also activated
- degree of experimentally-induced pulmonary hypertension [9]: decreasing
- safety of administration to pulmonary hypertension patients [7]: safely used

SMILES: CCC#CC[C@H](C)[C@H](O)C#C[C@@H]1[C@H]2C/C(=C/COCC(=O)O)C[C@H]2C[C@H]1O [cicaprost]
- IL-4 production [10, 21]: did not change
- IL-5 production [10, 21]: did not change
- IL-13 production [10, 21]: did not change
- IL-4 production [10, 22]: dose dependently decreased
- IL-5 production [10, 22]: dose dependently decreased
- IL-13 production [10, 22]: dose dependently decreased
- IL-5 production [10, 23]: still significantly inhibited
- IL-13 production [10, 23]: still significantly inhibited
- total numbers of IL-4+ T cells [11]: dose-dependently decreased
- total numbers of IL-13+ T cells [11]: dose-dependently decreased
- Gata3 mean fluorescence intensity [12]: significantly decreased
- percentages of Gata3-expressing CD4+ T cells [12]: significantly decreased
- total number of Gata3-expressing CD4+ T cells [12]: significantly decreased
- IL-2 production [13]: dose-dependently suppressed
- NFAT function (luciferase activity) [14]: significantly suppressed
- cell division index [15]: significantly decreased
- total number of live cells [15]: significantly decreased
- CD25 mean fluorescence intensity [16]: dose-dependently decreased
- percentages of CD25 expressing cells [16]: dose-dependently decreased
- total numbers of CD25 expressing cells [16]: dose-dependently decreased
- TSLPR MFI [17]: did not change
- percentages of TSLPR expressing cells [17]: did not change
- STAT5 phosphorylation [18]: dose-dependently attenuated
- production of effector cytokine IL-4 [4]: inhibited
- production of effector cytokine IL-5 [4]: inhibited
- LPS-induced expression of CD40 by DCs [5]: suppressed
- LPS-induced expression of CD86 by DCs [5]: suppressed
- LPS-induced expression of MHC class II molecules by DCs [5]: suppressed
- ability of DCs to stimulate antigen-specific CD4 T cell proliferation [5]: inhibited
- ability of DCs to stimulate production of the Th2 cytokine IL-5 [5]: inhibited
- ability of DCs to stimulate production of the Th2 cytokine IL-13 [5]: inhibited
- IL-33-induced cytokine responses of ILC2 [19]: inhibited
- ILC2 response [20]: inhibited
